Assay [1] has as its target T1, human SIGMA1 receptor (Homo sapiens, UniProt Q99720). Briefly: SIGMA1 filtration radioligand binding assay ([3H]DTG, membranes of transfected HEK293 cells). On the set-up: expressed in transfected cells; membrane/cell debris preparation. The conditions noted are these: for inhibition at 20 µM / SIGMA1 % Inhibition of Max Dose: Max Dose 20.000 μM. Here is the method: For SIGMA1 receptor expression in HEK293 cells, the human SIGMA1 receptor (U75283) in pcDNA 3.1(+) (Promega Corp., Madison, WI, USA) was used. In total, 2 μg of DNA was transfected in HEK293 cells (1,000,000 cells/dish) using FuGENE® HD Transfection Reagent (Promega Corp., Madison, WI, USA) according to the manufacturer’s recommendations. After 24 h, the medium was replaced by a medium containing the G418 antibiotic (300 μg/mL) (Burlington, MA, USA). The survival clones were scraped and cultured in individual dishes. After the cell amplification, they were harvested with trypsin and homogenized, then centrifuged at 50,000× g for 1 h, and the cell debris was used for the binding assay.
A SIGMA1 receptor-enriched membrane preparation was utilized for the binding assays at a 1.1 mg/mL concentration. Each assay well was loaded with 13 μg of this membrane preparation to ensure consistent receptor availability across all experimental conditions.
This methodical preparation ensures that the assay conditions are reproducible and that the concentration-dependent effects of the compounds can be accurately evaluated.
Reference and test compounds were diluted and transferred sequentially to the assay plate. We added non-specific binding compounds (low control, LC) and DMSO as the total binding high control (HC) according to the non-specific binding plate layout. We added 100 μL of the membrane stock solution and 100 μL of the radiolabeled ligand to the plate. We sealed the plates and shook them at 300 rpm under specified conditions. We filtered the reaction mixture through GF/B plates using a Filtermate-Harvester (PerkinElmer, Waltham, MA, USA, Cat: C961961), followed by washing with cold wash buffer, and dried and sealed the filter plates.
We added non-specific binding compounds (as the LC) and DMSO as the total binding HC according to the non-specific binding plate layout. Then, we added 100 μL of the membrane stock solution and 100 μL of the radiolabeled ligand to the plate. We sealed the plates and shook them at 300 rpm under specified conditions. […] After the binding experiment, we filtered the reaction mixture through GF/B plates using a Perkin Elmer Filtermate Harvester, washing each plate six times with a cold wash buffer. We dried the filter plates for 1 h at 50 °C. After drying, we sealed the bottom of the filter plate wells with Perkin Elmer Unifilter-96 backing tape. […] We counted the 3H on the filters using a Perkin Elmer MicroBeta2 Reader.
We analyzed the data using Prism 5. We fitted dose–response curves and determined the half maximal inhibitory concentration (IC50) using the “log(inhibitor) vs. response-variable slope” model.
We used the Z’-Prime equation for quality control, which can be written as follows: Z′ Factor=1−3×STDEVHC+3×STDEVLC/AVGHC − AVGLC∗100% where STDEVHC is the average standard deviation of MAX, STDEVLC is the average standard deviation of MIN, AVGHC is the average of MAX, and AVGLC is the average of MIN. Z’ must be ≥0.5 as the quality control standard.

Assay [2] deals with T1, human SIGMA1 receptor. Briefly: radioligand binding; filtration competition assay: membranes of HEK293 cells expressing human SIGMA1 (13 ug per well), [3H]DTG at 0.005 uM displaced by the test compound, max dose 20 uM, room temperature, GF/B filter plates.
Where [3] appears, read: [3H]DTG 0.005 μM, membranes of HEK293 cells expressing human SIGMA1, read-out: SIGMA1 IC50.
[4] abbreviates: [3H]DTG 0.005 μM, membranes of HEK293 cells expressing human SIGMA1, read-out: SIGMA1 Ki.

T1 sequence (Q99720 whole entry): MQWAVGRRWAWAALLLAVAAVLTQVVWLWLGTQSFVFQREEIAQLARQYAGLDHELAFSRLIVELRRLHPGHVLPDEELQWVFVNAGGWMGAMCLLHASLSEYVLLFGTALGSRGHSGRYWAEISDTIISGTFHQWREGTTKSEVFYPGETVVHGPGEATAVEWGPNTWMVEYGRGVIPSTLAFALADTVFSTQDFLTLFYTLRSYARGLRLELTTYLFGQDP

On to `C[C@@H]1NC(=O)[C@H](CCC(N)=O)NC1=O` [Cyclo(Ala-Gln)], for which the inhibition at 20 µM at human SIGMA1 receptor [1] worked out at 59.7%. Besides, the IC50 at human SIGMA1 receptor [1] (setting [3]) is 13.4 µM. Further, the Ki on human SIGMA1 receptor [1] (setting [4]) came to 11.7 µM.

Regarding `CC1NC(=O)CNC1=O` (centres unmarked) [Cyclo(Ala-Gly)], on human SIGMA1 receptor [1], the “SIGMA1 % Inhibition of Max Dose” value amounted to 44.60%. For the same compound, the IC50 at human SIGMA1 receptor [1] (setting [3]) is over 20 µM. For the same compound, the Ki on human SIGMA1 receptor [1] (setting [4]) was over 17.4 µM.

On to `C[C@@H]1NC(=O)[C@H](Cc2cnc[nH]2)NC1=O` [Cyclo(Ala-His)], for which the inhibition at 20 µM at human SIGMA1 receptor [1] worked out at 50.2%. Also, at human SIGMA1 receptor [1] (setting [3]), the IC50 came out at 19.4 µM. Also, the Ki on human SIGMA1 receptor [1] (setting [4]) was found to be 16.9 µM.

`O=C1CNC(=O)CN1` [Cyclo(Gly-Gly)]: on human SIGMA1 receptor [1], the “SIGMA1 % Inhibition of Max Dose” value turned out to be 3.200%. Besides, the concentration for half-maximal inhibition (IC50) at human SIGMA1 receptor [1] (setting [3]) was over 20 µM. On human SIGMA1 receptor [1] (setting [4]), the Ki was over 17.4 µM.

Regarding `O=C1CNC(=O)[C@H](Cc2ccc(O)cc2)N1` [Cyclo(Gly-Tyr)], the “SIGMA1 % Inhibition of Max Dose” value at human SIGMA1 receptor [1] is listed as 42.82%. At human SIGMA1 receptor [1] (setting [3]), the IC50 was over 20 µM. Moreover, the Ki at human SIGMA1 receptor [1] (setting [4]) is over 17.4 µM.

For `O=C1NC(Cc2ccccc2)C(=O)N2CC(O)CC12` (centres unmarked) [Cyclo(Hyp-Phe)], the “SIGMA1 % Inhibition of Max Dose” value at human SIGMA1 receptor [1] worked out at 54.26%. Further, at human SIGMA1 receptor [1] (setting [3]), the IC50 was over 20 µM. For the same compound, the Ki on human SIGMA1 receptor [1] (setting [4]) was over 17.4 µM.

Regarding `O=C1NC(Cc2ccc(O)cc2)C(=O)N2CC(O)CC12` (centres unmarked) [Cyclo(Hyp-Tyr)], on human SIGMA1 receptor [1], the “SIGMA1 % Inhibition of Max Dose” value worked out at 49.80%. Besides, the IC50 at human SIGMA1 receptor [1] (setting [3]) was over 20 µM. Besides, the Ki at human SIGMA1 receptor [1] (setting [4]) was over 17.4 µM.

Regarding `O=C1N[C@@H](Cc2ccccc2)C(=O)N[C@H]1Cc1ccccc1` [Cyclo(Phe-Phe)], the “SIGMA1 % Inhibition of Max Dose” value at human SIGMA1 receptor [1] was determined as 39.40%. Further, the IC50 on human SIGMA1 receptor [1] (setting [3]) was over 20 µM. For the same compound, the Ki at human SIGMA1 receptor [1] (setting [4]) is over 17.4 µM.

`O=C1NC(Cc2ccccc2)C(=O)N2CCCC12` (centres unmarked) [Cyclo(Phe-Pro)]: the “SIGMA1 % Inhibition of Max Dose” value on human SIGMA1 receptor [1] was 24.20%. For the same compound, the IC50 on human SIGMA1 receptor [1] (setting [3]) is over 20 µM. For the same compound, at human SIGMA1 receptor [1] (setting [4]), the Ki was over 17.4 µM.

Turning to `O=C1N[C@@H](Cc2ccc(O)cc2)C(=O)N[C@H]1Cc1ccc(O)cc1` [Cyclo(Tyr-Tyr)], the “SIGMA1 % Inhibition of Max Dose” value on human SIGMA1 receptor [1] stood at 40.29%. Also, on human SIGMA1 receptor [1] (setting [3]), the IC50 is over 20 µM. Also, at human SIGMA1 receptor [1] (setting [4]), the Ki is over 17.4 µM.

`CC(C)C1NC(=O)CNC1=O` (centres unmarked) [Cyclo(Val-Gly)]: at human SIGMA1 receptor [1], the Ki was found to be 9.95 µM and the inhibition at 20 µM stood at 61.9%. The compound also yielded a half-inhibitory concentration (IC50) on human SIGMA1 receptor [1] (SIGMA1 IC50, [3H]DTG 0.005 μM, membranes of HEK293 cells expressing human SIGMA1) of 11.5 µM.

Consider cyclo(Ala-Gln), for which, in the assay with human SIGMA1 receptor [2], the % Inhibition of Max Dose is 59.7% and the IC50 was determined as 13.4 µM.

With cyclo(Ala-His), in the assay with human SIGMA1 receptor [2], the % Inhibition of Max Dose came out at 50.2% and the IC50 worked out at 19.4 µM.

In the assay with human SIGMA1 receptor [2], cyclo(Val-Gly) returned a % Inhibition of Max Dose of 61.9% and a 50% inhibitory concentration (IC50) of 11.5 µM.

In the assay with human SIGMA1 receptor [2], cyclo(Val-Val) registered a 50% inhibitory concentration (IC50) of over 20 µM and a Ki of over 17.4 µM.

The record behind these values is article PMC11546255, “Exploring the Frontier of Cyclic Dipeptides: A Bioinformatics Approach to Potential Therapeutic Applications in Schizophrenia” (International Journal of Molecular Sciences, 2024).
